Laboratory results: patent US20250108070A1, “METHOD FOR REPROGRAMMING CD8+ T CELLS TO ENHANCE THEIR THERAPEUTIC POTENTIAL AND APPLICATIONS THEREOF” (INSTITUT PASTEUR, priority 2022, published 2025)
Where two headings read alike, the source gives them in different places.

Tests used:
human CD8+ T cells [1] = experiment: Screening of GSK3 inhibitors: markers and memory phenotypes by flow cytometry; assay type: cell-based
Experimental: (§1) FIG. 12. Screening molecules for reprogramming human CD8^+ T cells Total CD8^+ T cells were purified and treated for 12 hs with titrated doses of GSK3 inhibitors or DMSO vehicle control. After drug washout, cells were stimulated for 48 hs with plate-bound anti-CD3/anti-CD28 antibodies (at 1 mg/mL), followed by flow cytometry analyses. A. Upon stimulation, intracellular cytokine and phospho-protein staining was performed, the latter for the detection of phospho-S6 and phospho-AKT proteins (indicative of activation of mTORC1 and mTORC2 pathways, respectively). The fold change in the frequency of IFN-γ^+TNF-α^+ and pS6^+pAKT^+ cells induced by the treatment with each GSK3 inhibitor, relative to DMSO control, was analyzed. […] B. Fold change in the expression of the indicated markers and memory phenotypes induced by anti-CD3/anti-CD28 antibody stimulation relative to unstimulated cells (at least 3 donors per condition). TCM: T central memory; TEM: T effector memory; TTM: T transitional memory; TTE: T terminal effector; TSCM: T stem cell memory.
(§2) For reprogramming of CD8^+ T cells followed by polyclonal stimulation, cells were isolated by negative magnetic bead sorting (Stemcell Technologies). For reprogramming of CD8^+ T cells followed by antigen-specific stimulation, PBMC and magnetically separated CD8^+ T cells and non-CD8^+ T cells were used (REAlease® CD8 MicroBead Kit; Miltenyi Biotech). Then, CD8^+ T cells were treated with a GSK3 inhibitor (6-Bromoindirubin-3′-oxime; BIO; Sigma-Aldrich), at 3 μM, or an equivalent concentration of dimethyl sulfoxide (DMSO) vehicle control, in complete medium, for 12 hs at 37° C., 5% CO2. Non-CD8 cells were left resting during this time in complete medium. CD8^+ T cells were washed with complete medium and stimulated with the peptide pool in presence of non-CD8 T cells.
(§3) In some experiments, cells were culture in RPMI medium without glucose (MP Biomedicals). CD8^+ T cell proliferation was evaluated by CFSE dilution (at 1 μM, Thermo Fisher Scientific). In additional experiments, reprogrammed CD8^+ T cells were stimulated with IL-7 or IL-15 (both at 10 ng/mL; R&D) and cultured for 6 days. In all the cases, cells were cultured at a density of 2×10^6 cells/mL.
(§4) After cultures, cells were stained with the LIVE/DEAD Fixable Aqua Dead Cell Stain kit (Thermo Fisher Scientific), with anti-CD3 Alexa Fluor 700 or APC efluor 780 and anti-CD8 PE Texas Red antibodies, accordingly. […] In some experiments, cells were stained with APC-conjugated dextramers (Immudex), incubated for 15 minutes at room temperature. Additional surface staining panels included anti-HLA-DR Superbright 780, anti-CD38 Superbright 600, anti-PD-1 BV421, anti-LAG-3 APC efluor 780, anti-TIM3 PE Cy7, and anti-TIGIT BV786 antibodies, or anti-CD122 PE and anti-CD215 FITC antibodies. The BD Transcription Factor Buffer Set kit (BD Biosciences) was used for cell fixation and permeabilization. […] Cell acquisition was performed using LSR II or ARIA III flow cytometers (both from BD Biosciences), and data were analyzed with FlowJo v.10 software (BD Biosciences).

GSK3 [2] = settings: cited from earlier work; for IC50: GSK3 inhibitor, review Front. Mol. Neurosci. 2011
human CD8+ T cells [3] = experiment: Screening of GSK3 inhibitors: cytokine polyfunctionality (IFN-γ+TNF-α+) of CD8+ T cells after anti-CD3/anti-CD28 stimulation; assay type: cell-based; settings: for Fold change in IFN-γ+ TNF-a+cells (relative to DMSO): 12 hs at optimal dose, washout, 48 hs anti-CD3/anti-CD28, symbols not defined; for IFN-γ+TNF-α+ cells (polyfunctionality) relative to vehicle control: FIG. 12A, in words
Experimental: as §1, §2, §3, §4
(§5) The inventors explored GSK3 inhibitors to expand the array of molecules that could be used for CD8^+ T cell reprogramming. They implemented a screening approach that combined the evaluation of cytokine polyfunctionality of CD8^+ T cells (IFN-γ+TNFα+) vs the activation of mTORC1 and mTORC2 pathways (pS6+pAKT+) upon treatment with the GSK3 inhibitors and subsequent polyclonal stimulation.

[4] = tested on: mTORC1 and mTORC2 pathways; experiment: Screening of GSK3 inhibitors: phospho-S6 / phospho-AKT staining (activation of mTORC1 and mTORC2 pathways); assay type: cell-based, human; settings: for Fold change in pS6+pAKT+cells (relative to DMSO): 12 hs at optimal dose, washout, 48 hs anti-CD3/anti-CD28, symbols not defined; for frequency of pS6+pAKT+ cells / activation of mTORC pathway: FIG. 12A, in words
Experimental: as §1, §2, §3, §4, §5

[5] = tested on: CD8+ T cells from people without HIV; experiment: In vitro reprogramming of bulk CD8+ T cells, phenotype without further stimulation; assay type: cell-based, human; settings: BIO and TWS119 in parallel, 3 μM, 12 hs
Experimental: FIG. 1. Induction of stem-like CD8^+ T cells with high survival capacity and polyfunctionality by in vitro reprogramming. A. CD8^+ T cells from people without HIV were incubated with medium, vehicle control, or a GSK3 inhibitor, for 12 hs and the phenotype was evaluated by flow cytometry. A representative donor from a total of 4 is shown. B. Frequencies of CD8^+ T cell subpopulations after each treatment. C. Fold change of CD8^+ T cell subpopulations after treatment with vehicle control or a GSK3 inhibitor, relative to medium alone condition (n=4). D. Expression of TCF-1 in CD8^+ T cell subpopulations (n=4). E. The expression of the indicated markers in cells pre-treated with vehicle control or a GSK3 inhibitor was evaluated by flow cytometry. The fold change in the expression induced by 48 hs anti-CD3/CD28 stimulation, relative to unstimulated cells, is shown (n=5). F. Left: Flow cytometry analysis of dead cells (Aqua Live/Dead^+) among total and T-bet+CD8^+ T cells. Right: Fold change in dead CD8^+ T cells induced by anti-CD3/CD28 stimulation, relative to the unstimulated condition (n=5). G. Frequencies of granzyme B^+, TL-2^+, IFN-γ^+, and TNF-α^+CD8^+ T cells after anti-CD3/CD28 stimulation. H. Expression of 1 to 4 functions in CD8^+ T cells after anti-CD3/CD28 stimulation (n=5). I. After reprogramming with the GSK3 inhibitor, CD8^+ T cells were stimulated for 48 hs with anti-CD3/CD28, followed by wash and resting for 5 days. Then, cells were restimulated for another 48 hs with anti-CD3/CD28. Left: Flow cytometry analysis of proliferating (CFSE dilution) CD8^+ T cells. Right: Frequencies of CD8^+ T cells with 0, 1-3 or ≥4 cell divisions (n=9). J. Frequency of the total HCMV pp65-specific CD8^+ T cell response (IFN-γ^+ or CD107a^+ or TNF-α^+), after vehicle control or GSK3 inhibitor treatment, followed by HCMV pp65 peptides stimulation for 6 hs (n=6). K. Frequencies of CD8^+ T cell subpopulations among HCMV pp65-specific CD8^+ T cells (n=6). L. Expression of IFN-γ, CD107a, and TNF-α in HCMV pp65-specific CD8^+ T cells (n=6). M. Frequency of the total HCMV pp65-specific CD8^+ T cell response after HCMV pp65 peptides stimulation for 6 days (n=6). *P<0.05; **P≤0.01. NS: Not statistically significant. TSCM: Stem cell memory; TCM: Central memory; TTM: Transitional memory; TEM: Effector memory; TTE: Terminal effector.
FIG. 2. A. Flow cytometry gating strategy used to identify CD8^+ T cell subpopulations: Naïve, Stem cell memory (TSCM), Central memory (TCM), Transitional memory (TTM), Effector memory (TEM), and Terminal effector (TTE). B. Expression of CCR7, CD27 and TCF-1 in total CD8^+ T cells after treatment with vehicle control, or the GSK3 inhibitors BIO or TWS119, for 12 hs. The median fluorescence intensity of each marker is depicted. C. Fold change in TSCM, TCM and TEM cells induced by BIO or TWS119, relative to vehicle control (n=3 people without HIV). D. Fold change in T-bet^+ cells among TSCM and TCM induced by anti-CD3/CD28 stimulation, relative to vehicle control, in cells previously treated with vehicle control, BIO or TWS119 (n=3). E. Fold change in T-bet^+ cells among naïve/TSCM induced by anti-CD3/CD28 stimulation (0.2 and 1 μg/mL), relative to unstimulated cells, previous treatment with vehicle control or the GSK3 inhibitor (n=3). F. Fold change in T-bet^+ cells among each CD8^+ T cell subpopulation induced by anti-CD3/CD28+ICAM-1 stimulation, relative to unstimulated cells (n=5). G. Frequency of IL-2^+TNF-α^+ cells among each CD8^+ T cell subpopulation after anti-CD3/CD28+ICAM-1 stimulation (n=5). H. Correlation between the frequency of PD-1^+LAG-3^+TIM3^+TIGIT^+CD8^+ T cells and the proportion of CD8^+ T cells with ≥4 cell divisions after restimulation (n=6). I. After reprogramming with the GSK3 inhibitor, CD8^+ T cells were left unstimulated, stimulated once for 48 hs with anti-CD3/CD28, or stimulated twice with anti-CD3/CD28. The expression of T-bet in TCM and TTM cells is shown (n=5). *P<0.05. […]

GSK3 [6] = settings: reference 42; cited from earlier work
[7] = 12 hs at optimal dose, anti-CD3/anti-CD28 stimulation relative to unstimulated cells, symbols not defined

CN(C)CCCn1cc(C2=C(c3c[nH]c4ccccc34)C(=O)NC2=O)c2ccccc21 [GF 109203X]
Fold change in % HLA+ CD38+ (human CD8+ T cells [1]; [7]): − −

O=C([O-])[O-].[Li+].[Li+] [Lithium carbonate]
Fold change in % HLA+ CD38+ (human CD8+ T cells [1]; [7]): + +

O[C@]12C=C(c3nccc4c3[nH]c3ccccc34)[C@@H]3CCN(CCCC/C=C\CC1)C[C@@]31C[C@@H]3/C=C\CCCCN3[C@H]12 [Manzamine A]
IC50 (GSK3 [2]): 1500 nM

COc1ccc(-c2ocnc2C(=O)NCCCn2cncn2)cc1Cl [PF-04802367]
Fold change in IFN-γ+ TNF-a+cells (relative to DMSO) (human CD8+ T cells [3]): + + | IFN-γ+TNF-α+ cells (polyfunctionality) relative to vehicle control (human CD8+ T cells [3]): increased | Fold change in pS6+pAKT+cells (relative to DMSO) [4]: + + | frequency of pS6+pAKT+ cells / activation of mTORC pathway [4]: activation of mTORC pathway

COc1ccc2c(c1)/C(=C/c1cnc[nH]1)C(=O)N2 [SU 9516]
Fold change in IFN-γ+ TNF-a+cells (relative to DMSO) (human CD8+ T cells [3]): + + | IFN-γ+TNF-α+ cells (polyfunctionality) relative to vehicle control (human CD8+ T cells [3]): increased | Fold change in pS6+pAKT+cells (relative to DMSO) [4]: + + | frequency of pS6+pAKT+ cells / activation of mTORC pathway [4]: activation of mTORC pathway | Fold change in % HLA+ CD38+ (human CD8+ T cells [1]; [7]): + +

CN[C@@H]1C[C@H]2O[C@@](C)([C@@H]1OC)n1c3ccccc3c3c4c(c5c6ccccc6n2c5c31)C(=O)NC4 [Staurosporine]
Fold change in % CD127+ T-bet− (human CD8+ T cells [1]): + | Fold change in % HLA+ CD38+ (human CD8+ T cells [1]): − | Fold change in % LAG3+ PD1+ (human CD8+ T cells [1]): − | Fold change in % TTM (human CD8+ T cells [1]): +

Nc1cccc(-c2cc3c(Oc4cccc(O)c4)ncnc3[nH]2)c1 [TWS119, 3-[[6-(3-aminophenyl)-7H-pyrrolo[2,3-d]pyrimidin-4-yl]oxy]phenol]
CCR7, CD27, and TCF-1 ([5]; FIG. 2B): induced | TEM cells ([5]; FIG. 2C): decrease | TSCM and TCM cells ([5]; FIG. 2C): increase | IC50 (GSK3 [2]): 0.6 to 7 nM | selectivity of inhibition of GSK3 (GSK3 [2]): highly selective inhibitors | Wnt/β-catenin/TCF-1 pathway (GSK3 [6]): induce the activation

O=c1sn(-c2cccc3ccccc23)c(=O)n1Cc1ccccc1 [Tideglusib (NP031112)]
frequencies of CD127− T-bet+ cells, and LAG-3+ PD-1+ cells (human CD8+ T cells [1]; FIG. 12B, in words): higher frequencies | phenotype / profile promoted in CD8+ T cells (human CD8+ T cells [1]; FIG. 12B, in words): promoted an effector-like profile

[Zn+2] [Zinc]
IC50 (GSK3 [2]): 15000 nM
